Measurements reported in patent publication EP1136472A1, “ARYL- AND HETEROARYLAMIDES OF CARBOALKOXYSULFANILIC ACIDS” (priority 1998, dated 2000).
In brackets after ≈: the same amount, converted by molar mass. Where two headings read alike, the source gives them in different places.

Assays:
[1] = tested on: Mycobacterium tuberculosis H37RV; assay: Antimicrobial action, serial dilution method; format: cell-based; conditions: 72-hour cultivation at 37°C
[2] = tested on: primary culture of human lymphocytes; assay: Interferon-inducing activity in primary culture of human lymphocytes (IFN-α immunoenzyme test); format: cell-based
Procedure: Interferon synthesis induction caused by the claimed compounds was conducted on a primary culture of human lymphocytes (it is these cells in a human organism that are the main producers of interferons). To obtain lymphocyte culture, fresh blood (within 12 hours after sampling) from healthy donors (not of group II) was used. To separate lymphocytes, heparinized blood obtained from healthy donor was centrifuged in a density gradient ficoll-verografin of […] in order to extract a fraction of immunocompetent cells. This fraction was selected and diluted with the nutrient medium RPMI-1640, containing 5% of fetal calf serum, 0.3 mg/ml of L-glutamin, 100 un/ml of penicillin, and 50 µg/ml of streptomycin. The concentration of lymphocytes was considered after dying them with methylene blue and calculation of cell number in a chamber of a hemocytometer. Initial solutions of the claimed compounds were diluted with the nutrient medium RPMI-1640 so that the final concentrations of the compounds, which were obtained after introduction of lymphocyte suspension, constituted the raw: 100 µg/ml, 10 µg/ml, 1 µg/ml. The final concentration of lymphocytes in the induction mixture was 3x10^6 cell/ml.
Control and test samples were incubated for 24 hours at the temperature of 37°C. After incubation, the samples were centrifuged at 2,000 G to deposit cell elements, and IFN-containing supernatant was separate out of the samples; then the supernatant was analyzed for the quantitative content of IFN. Cell deposition was resuspended in the preceding volume of nutrient medium, colored with vital dye trypan blue, and cell number was counted in a chamber of a hemocytometer (as described above) to determine cytotoxic action of the compounds.
Quantitative determination of the content of IFN in control and test samples was conducted using the immunoenzyme test system Pro Con IF2 Plus, that is intended for determination of IFN-α, which is produced by TOO "Protein contour". The solid-phase immunoenzyme method, utilizing horse radish peroxidase as an indicator enzyme, was used to determine the quantity of interferon in the samples. Activity of the bonded peroxidase was measured using an automatic photometer for microplates with a microprocessor at the wavelength of 450 nm.
Based on the obtained results, a calibrating curve was formed, which allows to obtain data expressed in international units (IU) of activity, using the microprocessor of the automatic photometer. The results of the analysis are expressed in IU of activity of IFN per ml in the given induction system, which contains 3x10^6 lymphocyte/ml. Each test and control point was investigated in four parallels.
Controls of immunoenzyme reaction: • 1. Control of DMSO with a nutrient medium. • 2. Control of system components (according to an instruction).
The obtained data were undergone a statistical analysis using t-criterion, and calculation of the confident interval of probability at p=0.05 was carried out. Coincidence between the results obtained in the parallel tests was analyzed.

[3] = tested on: Herpes Simplex virus of the type I (HSV-I /Leningrad/248/88); assay: Antiviral effect on Herpes Simplex virus (cytopathogenic action on Vero cells); format: cell-based; conditions: for Quantity of the unchanged cells: number of cells in 100 visual fields
C.trachomatis D323 = assay: Antichlamydial activity in infected cell culture (McCoy and L929); format: cell-based, Chlamydia trachomatis; conditions: 100 mg/l; for percentage of cell protection from infection / Number of unchanged cells: 48 hours; for Number of unchanged cells: counted in 100 visual fields
Procedure: The antichlamydial activity of the claimed compounds was studied in respect to C.trachomatis […], which is a standard strain contained in the collection of the department of microbiology of St. Petersburg State Pavlov Medical University. […] Cell cultures McCoy and L929 obtained from the Institute of Cytology of RAS were used in this work. Cells were grown in flasks made of neutral glass in the medium RPMI-1640 containing 10% of fetal calf serum. The test was performed in flat-bottom flasks made of glass (non-toxic), that were supplied with cover glasses. The cells were introduced into the medium in the final concentration of 1x10^6 cell/ml. […] Simultaneously, tested compounds in a final concentration of 100 mg/l were added to the cells. The sample was centrifuged at 2400 G for 60 minutes at a room temperature and incubated at 37°C for 2 hours. […] The samples were doubled using the medium without cycloheximide so as to exclude its effect on the investigated compounds. The samples were incubated for 48 hours in CO2-incubator. The controls included: • 1. Control of cell culture • 2. Control of action of solvents • 3. Control of action of chlamydia in absence of any compounds • 4. […] Control of the tested compounds as to toxicity in respect to the cell culture. Evaluation of the results was carried out by the way of determination of chlamydial cytoplasmatic inclusions (CPI) that was conducted by the method of immunofluorescence (MicroTrack Chlamydia trachomatis Direct Specimen Test), and by the way of determination of chlamydia antigens that was conducted by means of CylaMonoScreen (Russian-British Joint Venture 66 Regent's Parc Road London NW1 7SX). The effect of the action of compound was determined by analysis of the monolayer state and number of cells with CPI when compared with the control (cell culture infected with C.trachomatis […]); in doing so, the number of unchanged cells, that were counted in 100 visual fields obtained using the eyepiece-micrometer, was taken into consideration.

[4] = Mycobacterium tuberculosis, H37RV, read-out: MIC
[5] = compound concentration of 100 µg/ml, after 36 hours
[6] = compound concentration of 100 µg/ml, protection of cells from virus as compared to the control of cell culture

Compound	Content of IFN in induction mixture after 24-hour incubation ([2]; 1 mg/l)	Content of IFN in induction mixture after 24-hour incubation ([2]; 10 mg/l)	Content of IFN in induction mixture after 24-hour incubation ([2]; 100 mg/l)	Quantity of the unchanged cells [3, 5]	percentage of protection [3, 6]	further results
Carboheptoxysulfanylic acid (1,2,4-thiadiazole-2-hexyl-5-yl)amide [XXXIV]	–	–	–	–	–	MIC [1]: 50 µg/mL
[H]/N=C(/N)N[C@H]1[C@H](O)[C@@H](O)[C@H](O[C@@H]2O[C@@H](C)[C@](O)(C=O)[C@H]2O[C@@H]2O[C@@H](CO)[C@H](O)[C@@H](O)[C@@H]2NC)[C@@H](N/C(N)=N\[H])[C@@H]1O [Streptomycin]	–	–	–	–	–	MIC [1, 4]: 0.2 µg/mL (≈ 0.344 µM)
CCCCCCOC(=O)Nc1ccc(S(=O)(=O)Nc2ccccc2Cl)cc1 [XXVIII, Carbohexoxysulfanylic acid (2-chlorophenyl)amide]	1,4 ± 0,1 IU/3x10^4 lymph./ml	2,3 ± 0,2 IU/3x10^4 lymph./ml	3 ± 0,1 IU/3x10^4 lymph./ml	–	–	–
CCCCOC(=O)Nc1ccc(S(=O)(=O)Nc2c(Cl)cccc2Cl)cc1 [X, Carbobutoxysulfanylic acid (2,6-dichlorophenyl)amide]	7 ± 1 IU/3x10^4 lymph./ml	26 ± 1 IU/3x10^4 lymph./ml	100 ± 3 IU/3x10^4 lymph./ml	7000	70%	percentage of cell protection from infection (C.trachomatis D323): 50%; Number of unchanged cells (C.trachomatis D323): 4.000
CCCCOC(=O)Nc1ccc(S(=O)(=O)Nc2ccccc2C)cc1 [VIII, Carbobutoxysulfanylic acid (2-toluyl)amide]	–	–	–	8000	80%	–
CCOC(=O)Nc1ccc(S(=O)(=O)Nn2cnnc2)cc1 [XXVI, Carboethoxysulfanylic acid (1,2,4-triazole-4-yl)amide]	1,6 ± 0,1 IU/3x10^4 lymph./ml	2 ± 0,2 IU/3x10^4 lymph./ml	2,5 ± 0,5 IU/3x10^4 lymph./ml	–	–	–
Carbo(2,2,2-trifluorethoxy)-sulfanylic acid (1,2,4-thiadiazole-2-butyl-5-yl)amide [XL]	1.6 ± 0.1 IU/3x10^4 lymph./ml	3.6 ± 0.5 IU/3x10^4 lymph./ml	14 ± 0.2 IU/3x10^4 lymph./ml	7000	70%	–
CCCCCCCOC(=O)Nc1ccc(S(=O)(=O)Nc2ccccc2Cl)cc1 [XXVII, Carboheptoxysulfanylic acid (2-chlorophenyl)amide]	1,2 ± 0,1 IU/3x10^4 lymph./ml	1,5 ± 0,3 IU/3x10^4 lymph./ml	2 ± 0,3 IU/3x10^4 lymph./ml	–	–	–
CCCCOC(=O)Nc1ccc(S(=O)(=O)Nc2cccc(Br)c2)cc1 [XII, Carbobutoxysulfanylic acid (3-bromophenyl)amide]	1,3 ± 0,2 IU/3x10^4 lymph./ml	2 ± 0,5 IU/3x10^4 lymph./ml	2,5 ± 0,6 IU/3x10^4 lymph./ml	5000	50%	percentage of cell protection from infection (C.trachomatis D323): 45%; Number of unchanged cells (C.trachomatis D323): 3.600
CCCCOC(=O)Nc1ccc(S(=O)(=O)Nc2ccccc2Cl)cc1 [IX, Carbobutoxysulfanylic acid (2-chlorophenyl)amide]	1,5 ± 0,1 IU/3x10^4 lymph./ml	2 ± 0,1 IU/3x10^4 lymph./ml	2,5 ± 0,5 IU/3x10^4 lymph./ml	7000	70%	–
CC1COc2c(N3CCN(C)CC3)c(F)cc3c(=O)c(C(=O)O)cn1c23 (stereo not drawn) [Ofloxacin]	–	–	–	–	–	MIC [1, 4]: 0.5 µg/mL (≈ 1.38 µM)
CCCCOC(=O)Nc1ccc(S(=O)(=O)Nc2cc(C)ccc2C)cc1 [XIV, Carbobutoxysulfanylic acid (2,5-dimethyl)amide]	1,2 ± 0,1 IU/3x10^4 lymph./ml	1,8 ± 0,2 IU/3x10^4 lymph./ml	2 ± 0,2 IU/3x10^4 lymph./ml	7000	70%	–
CCCCOC(=O)Nc1ccc(S(=O)(=O)Nc2ccccc2)cc1 [XIII, Carbobutoxysulfanylic acid phenylamide]	1,5 ± 0,2 IU/3x10^4 lymph./ml	1,4 ± 0,1 IU/3x10^4 lymph./ml	2 ± 0,1 IU/3x10^4 lymph./ml	5000	50%	–
Nc1nc2c(ncn2COCCO)c(=O)[nH]1 [Acyclovir, reference compound]	–	–	–	–	–	percentage of protection ([3]; Acyclovir 10 µg/ml, as compared to the control of cell culture): 80%; Quantity of the unchanged cells ([3]; Acyclovir 10 µg/ml): 8000
CCCCCOC(=O)Nc1ccc(S(=O)(=O)Nc2c(Cl)cccc2Cl)cc1 [XIX, Carbopentoxysulfanylic acid (2,6-dichlorophenyl)amide]	–	–	–	8000	80%	–
Rifampycin	–	–	–	–	–	MIC [1]: 0.05 µg/mL
CC[C@@H](CO)NCCN[C@@H](CC)CO [Ethambutol]	–	–	–	–	–	MIC [1, 4]: 5 µg/mL (≈ 24.5 µM)
CCCCOC(=O)Nc1ccc(S(=O)(=O)Nc2ccc(Br)cc2)cc1 [III, Carbobutoxysulfanylic acid (4-bromophenyl)amide]	1,4 ± 0,2 IU/3x10^4 lymph./ml	2,6 ± 0,3 IU/3x10^4 lymph./ml	3,5 ± 0,2 IU/3x10^4 lymph./ml	5000	50%	–
CCCCCCOC(=O)Nc1ccc(S(=O)(=O)Nc2ccc(Br)cc2)cc1 [V, Carbohexoxysulfanylic acid (4-bromophenyl)amide]	1,1 ± 0,1 IU/3x10^4 lymph./ml	1,4 ± 0,1 IU/3x10^4 lymph./ml	2 ± 0,3 IU/3x10^4 lymph./ml	5000	50%	–
CCCCCOC(=O)Nc1ccc(S(=O)(=O)Nc2c(C)n(C)n(-c3ccccc3)c2=O)cc1 [XLI, Carbopentoxysulfanylic acid (1,5-dimethyl-2-phenylpyrazolone-4-yl)-amide]	5 ± 0.4 IU/3x10^4 lymph./ml	18.7 ± 0.2 IU/3x10^4 lymph./ml	69 ± 1 IU/3x10^4 lymph./ml	7500	75%	activity against chlamydia (in words) (C.trachomatis D323): marked biological activity against chlamydia; percentage of cell protection from infection (C.trachomatis D323): 55%; Number of unchanged cells (C.trachomatis D323): 4.400
